Where “and” joins values, the source holds several entries; their conditions need not be identical. Equal entries are not always repeated. Where two headings read alike, the source gives them in different places.

In series [1] the test system is P. falciparum. The series can be described thus: Population PK/PD modelling (Emax model) and dose simulation. It counts as in vivo, Plasmodium falciparum. On the procedure:
Data preparation, exploration, model definition, model evaluation and simulations were performed in R (version 3.5.1) and the R package IQRtools (version 1.0.6; IntiQuan, Basel, Switzerland) within the software package MonolixSuite 2018R2 (Lixoft, Antony, France). The MIC and the minimum parasiticidal concentration that achieves 90% of maximum effect (MPC90) were derived from the PK/PD model. Simulations were performed to predict the minimum effective single dose, defined as the dose that clears 10^9 parasites/ml. Further detail on PK/PD modeling methods is presented in Text S1.
Pharmacokinetic/Pharmacodynamic modelling methods and results […]
The objectives of the PK/PD modelling anal ysis w ere:
1. To develop a population PK model of cipar gamin in healthy subjects inoculated with blood stage P. falciparum .
2. To char acterize the PK/PD relationship between cipargamin pharmacokinetics and parasite cl ear ance in h eal th subjects inoculated with blood stage P. falcipar um .
3. To determine the minimum inhibitory concent ration (M IC ) of cipargamin .
4. To establish the minimum effective cipar gamin single dose required to kill 10 9
Data preparation, exploration, model definition, model evaluation and simulations were performed in R (version 3.5.1) and the R package IQRtools (version 1.0.6, IntiQuan GmbH, Basel, Switzerland) withi n the software package MonolixSuite2018R2 (Li xoft, Anton y, Fran ce) which implemen ts stochastic approx imation ex pectation-maximisation (SAEM) algorithm for parameter estimation.
One-, two- and three-compartment with different absorption and elimination models were tested. Zero- and first-order absorption models wi th or without lag time were examined. Data below the lower limit of quantitation ( LLO Q; 0.001 µg/ m L) were treated using a left - censoring method. Between subject vari abilit y ( BSV) of the PK parameters was assumed to be normally distributed on log -scale. The random effects across the par ameters within an individual were modelled according to a multivari ate normal distribution (MVN). BS V w as […]
supported by the data.The residual unexplained variabilit y (RUV) was tested using a proportional or combined error models.
Population PK/PD modelling
A sequential PK/PD modelling approach was used in which the empirical Bayes estimates of individual PK parameters were us ed as r egression parameters for the PK/P D model. The observations below the limit of detection (LOD; 10 parasites/mL) were mo del led using a l eft-censoring method. In this anal ysis, the changes in parasitemia over time in the presen ce of antimalarial dru g are ass umed to be a result of the differen ce b etween p ar asite growth rate (k grow ) and the r ate at wh ich parasites are killed b y the drug (k k ill ) with a baseline parasitemia (P L base ) at time t 0 (time of inoculation). Diff erent structural PK/PD models were tested to assess the relationship of cipar gamin plasma concentration on the parasite ki lling rate. The E max model assumed a direct effect of cipargamin plasma concent rations on parasite killing.
The turnover model assumed an indirect effect of cipargamin plasma concentrations on parasite killing due to lag in the PD processes (i.e. the kinetics of dru g-receptor binding). The effect compartment mod el assumed an indirect ef fect of cipar gamin plasm a concentration on parasite killing due to biophase equilibration. This model can be interpreted as the dela y for the drug to reach the site of action in which the cip ar gamin concentrations i n the eff ect […]
compartment drives the d rug eff ect. The p arasite clear an ce model assumed that the observed parasites were a mixture of living and dead parasites and that the cipar gami n plasma […]
PD parameters wer e mod elled assuming a log-normal distribution with exception of ln-transformed b aseline par asite values (parasit emia at time of inoculation) w here a no rmal distribution was assumed. […]
were fixed to 0.2. […]

Details of series [2]: method as in PMID 25114127. The note with it: cited from earlier work.
For series [3] the following is noted: cited from earlier work.
Where [4] appears, read: plasma concentration, PK/PD model, 10 mg cohort.
Setting [5] is: 25 P. falciparum patients, single doses of 10, 15, 20 or 30 mg.
Where [6] appears, read: P. falciparum patient, day 6, not considered related.
The mark [7] stands for this setting: P. vivax patient, day 9, 30 mg per day for 3 days.

On to `C[C@H]1Cc2c([nH]c3cc(Cl)c(F)cc23)[C@@]2(N1)C(=O)Nc1ccc(Cl)cc12` [cipargamin], for which, in series [1] (PK/PD model, 10 mg), the “PRR48 actual, median (95% CI)” value is given as 2.59 (1.89 – 3.32) log10 unit; the “Time above MIC, median (95% CI)” value is reported as 1.96 (1.59 –2.44) days; the “Time above MPC90, median (95% CI)” value is 0.89 (0.63–1.26) days. Besides, the “Emax, maximum parasite killing rate” value in series [1] (final PK/PD Emax model, Hill coefficient fixed to 5) was 0.23 h⁻¹. Moreover, in series [1] (setting [4]), the “MIC, median (95% CI)” value was 11.6 (9.9 – 13.3) ng/ml and 11.6 ng/ml; the “MPC90, minimum parasiticidal concentration that achieves 90% of maximum effect, median (95% CI)” value was 23.5 (19.9 – 27.4) ng/ml and 23.5 ng/ml. The “minimum effective single dose predicted to clear 10^9 parasites/ml” value in series [1] (simulation in patients with malaria, 500 patients per dose, up to day 28) was 95 mg. In addition, in series [2] (10 mg, healthy subjects, first-in-human study), the “AUC0–∞” value was 1860 ng·h/mL. The LFT abnormalities entry in series [2] (72 healthy subjects, single doses up to 300 mg or up to 150 mg daily for 3 days) was “only one subject displayed mild LFT abnormalities”. Also, in series [2] (single dose up to 300 mg or up to 150 mg daily for 3 days), the tolerability in humans entry was “tolerated”. In series [3] (10 mg, patients with naturally acquired malaria), the “AUC0–∞” value is 6400 ng·h/mL. Further, in series [3] (30 mg per day for 3 days, 11 P. falciparum and 10 P. vivax patients), the LFT abnormalities entry is given as “three subjects displayed LFT abnormalities”. In addition, in series [3] (setting [5]), the “patients with increased ALT” value is on record as “only one patient displayed increased ALT”, the “patients with increased blood alkaline phosphatase” value is 40% and the subjects with hyperbilirubinemia was 20%. For the same compound, in series [3] (setting [6]), the “increased ALT” value was 192 U/liter and the “increased AST” value is 121 U/liter. In addition, in series [3] (setting [7]), the “peak ALT” value is 241 U/liter and the “peak AST” value is 106 U/liter. In series [3] (other P. vivax patient, day 6), the “peak ALT” value is 78 U/liter and the “peak AST” value is given as 63 U/liter. Also, in series [3] (single 75-mg dose, cohort of 11 P. falciparum patients, ref unpublished, NCT01860989), the “patients with asymptomatic transient ALT elevations (>3 × ULN)” value is reported as “four patients had asymptomatic transient ALT elevations”.
